Patent US11980596B2 (priority 2017, dated 2024)

Assays:
[1] = tested on: elderly subjects with TRD; assay type: in vivo, human; details: each dosing day
Description: The Modified Observer's Assessment of Alertness/Sedation (MOAA/S) was used to measure treatment-emergent sedation with correlation to levels of sedation defined by the American Society of Anesthesiologists (ASA) continuum. The MOAA/S scores range from 0 (No response to painful stimulus; corresponds to ASA continuum for general anesthesia) to 5 (Readily responds to name spoken in normal tone [awake]; corresponds to ASA continuum for minimal sedation). The proportion of subjects with sedation was <4% for the esketamine group for each dosing day.

[2] = tested on: subjects with TRD; assay type: in vivo, human; details: post dose
Method: Transient blood pressure increases peaked for the esketamine group at approximately 40 minutes post dose and returned closer to predose levels by 1.5 hours post dose.

[3] = 14-day; 54 mg/day
Method: This study includes a single dose and 14-day repeated dose neurotoxicity studies with intranasally administered esketamine in female rats 12 to 14 weeks of age. These studies were conducted to investigate whether single or repeated intranasal administrations of esketamine induced neurodegenerative changes in the rat brain. The study results were used to estimate an esketamine exposure-based safety margin compared with the maximum dose of esketamine administered intranasally to depressed adult patients in clinical trials.
Each group of main study animals consisted of 12 female rats. Four satellite animals were added to the esketamine HCl-dosed groups of main study animals for TK purposes. The plasma exposure to esketamine was measured in these animals on the first and the last day of dosing at various time points up to and including 24 hours after the first instillation.

[4] = tested on: patients with treatment-resistant depression (TRD); test: Vital signs: blood pressure and heart rate (Example 7); assay type: in vivo, human; details: post-dose
Method: Adverse events were monitored throughout the study. Other safety assessments (i.e., laboratory tests, vital signs, physical examination) were performed at pre-specified time points. Vital signs, the Clinician Administered Dissociative States Scale (CADSS; Bremner, “Measurement of dissociative states with the clinician-administered dissociative states scale (CADSS)”, J. Traumatic Stress, 1998, 11(1):125-136), and the 4-item positive symptom subscale from the Brief Psychiatric Rating Scale (BPRS; Overall, “The Brief Psychiatric Rating Scale. Psychological Reports”, 1962, 10:799-812) were assessed pre-dose, at 40 minutes, and 2 hours post-dose.

[5] = tested on: healthy subjects; test: Cardiac electrophysiology (QTc) study; assay type: in vivo, human
Method: The effect of SPRAVATO (84 mg nasal spray and 0.8 mg/kg esketamine intravenously infused over 40 minutes) on the QTc interval was evaluated in a randomized, double-blind, placebo-, and positive-controlled (moxifloxacin 400 mg), 4-period, crossover study in 60 healthy subjects.

[6] = tested on: transgenic (Tg.rasH2) mice; test: 6-month study in transgenic (Tg.rasH2) mice; assay type: in vivo, mouse; details: once-daily subcutaneous up to 75 mg/kg/day (reduced to 40 mg/kg/day during week 17); 6 months
[7] = Fertility study in male and female rats; assay type: in vivo, rat; details: both sexes, rat, in vivo, inhaled or intranasal; read-out: NOAEL for mating and fertility
Method: (§1) The No Observed Adverse Effect Level (NOAEL) for mating and fertility is 45 mg/kg/day which is 0.6 times the esketamine exposures at MRHD of 84 mg/day.

[8] = tested on: male and female rats; test: Fertility study in male and female rats; assay type: in vivo, rat
Method: as §1

[9] = tested on: elderly subjects with TRD; details: post dose
Method: (§2) The Clinician Administered Dissociative States Scale (CADSS) was measured prior to the start of each dose, at 40 minutes, and 1.5 hours postdose.

[10] = tested on: subjects with TRD; details: post dose
Method: as §2

[11] = tested on: subjects with TRD; details: IND or OP/MA phases; among the 76 subjects
Description: The efficacy and safety analyses are based on the full (IND) analysis set and the full (OP/MA) analysis set. The full (IND) analysis set is defined as all subjects who receive at least 1 dose of intranasal study medication or 1 dose of oral antidepressant in the open-label IND phase (for direct-entry and transferred-entry non-responder subjects). The full (OP/MA) analysis is defined as all subjects who receive at least 1 dose of intranasal study medication or 1 dose of oral antidepressant in the OP/MA phase. Safety variables include cognition function over time, treatment-emergent adverse events (TEAEs), including TEAEs of special interest, vital signs over time, Clinician-Administered Dissociative Symptom Scale (CADDS) over time, and Modified Observer's Assessment of Alertness/Sedation (MOAA/S) score≤3.

[12] = tested on: CYP2B6, CYP3A4, CYP1A2; test: CYP induction in human hepatocytes

With `CN[C@]1(c2ccccc2Cl)CCCCC1=O` [esketamine, (S)-2-(2-chlorophenyl)-2-(methylamino)cyclohexanone] as the compound, how does the “Proportion of subjects with sedation (post dose MOAA/S score of ≤3)” value [1] read?
Its value is < 4%.

What about the “Blood pressure returned closer to predose levels by” value [2] of the same compound?
Its value is ≤ 1.5 h.

And the “Time of peak of transient blood pressure increases” value [2]?
Its value is “approximately 40 minutes”.

And the “AUC-based safety margin compared with the maximum 84 mg clinical dose” value [3]?
The value was ~11 fold.

And the “Cmax-based safety margin compared with the maximum 84 mg clinical dose” value [3]?
Its value is “approximately 17 fold”.

And the “Elevated blood pressure returned to the normal range by” value [4]?
The value was ≤ 2 h.

What about the “Increase in heart rate” value ([5]; 84 mg nasal spray and 0.8 mg/kg intravenously over 40 minutes) of the same compound?
Its value is > 10 bpm.

And the QTc prolongation ([5]; therapeutic dose)?
The QTc prolongation was “lack of clinically relevant QTc prolongation”.

And the Incidence of tumors [6]?
The Incidence of tumors was “did not increase the incidence of tumors”.

What about the NOAEL [7] of the same compound?
The NOAEL was 45 mg/kg/day.

What about the “Mean AUC exposure, multiple of the MRHD of 84 mg/day” value (“Mean AUC exposure, multiple” for short) ([8]; 4.5 mg/kg/day intranasal) of the same compound?
Its value is “approximately 0.05 times”.

And the “Mean AUC exposure, multiple” value ([8]; 15 mg/kg/day intranasal)?
The value was ~0.3 times.

And the “Mean AUC exposure, multiple” value ([8]; 45 mg/kg/day intranasal)?
Its value is ~0.6 times.

And the “Dissociative and perceptual change symptoms (CADSS) resolved by” value [9]?
The value was ≤ 1.5 h.

What about the “Dissociative/perceptual change symptoms (CADSS) resolved by” value [10] of the same compound?
The value was ≤ 1.5 h.

And the “Subjects with an AE leading to discontinuation of intranasal esketamine considered related to esketamine” value [11]?
Its value is 51 subjects.

And the “Induction of CYP1A2” value ([12]; hepatocytes)?
Its value is “do not induce”.

And the “Induction of CYP2B6 and CYP3A4” value ([12]; human hepatocytes)?
Its value is “modest induction effects”.
